This is an account of results in publication PMC11761247, “Antioxidant, Anti-α-Glucosidase, Anti-Tyrosinase, and Anti-Acetylcholinesterase Components from Stem of Rhamnus formosana with Molecular Docking Study” (Antioxidants, 2024).

Test [1] can be described thus: DPPH free radical scavenging activity. The note with it: for EC50: isolated compounds (Table 5), read-out: SC50 DPPH. On the procedure: DPPH analysis was performed according to the previously published procedure. A 400 μM DPPH radical solution was prepared in EtOH. The tested samples were dissolved in DMSO to prepare stock solutions, which were then diluted to the desired concentrations with EtOH. In a 96-well plate, 100 μL of each diluted tested sample solution was mixed with 100 μL of the DPPH radical solution (200 μM). The mixture was allowed to react in the dark at room temperature for 30 min. After the reaction, the absorbance at 520 nm was measured using an ELISA reader. DPPH radical scavenging activity was calculated by the following equation:(1) Scavenging rate (%)=(OD0−OD1)/OD0 where OD0 is absorbance of the control and OD 1 is that of the tested sample.
In general terms: DPPH is a stable violet radical that fades when it is reduced.

Test [2] is described as follows: ABTS radical scavenging activity. As to conditions: for EC50: isolated compounds (Table 5), read-out: SC50 ABTS. On the procedure: The analysis of ABTS was performed according to the previously published method. The ABTS solution (28 mM) was mixed with […] solution (9.6 mM) in a 1:1 ratio (v/v) and allowed to react in the dark at room temperature for 16 h to generate the ABTS radical solution. The ABTS radical solution was then diluted with EtOH until the absorbance at 740 nm reached 0.70 ± 0.02. The tested samples were dissolved in DMSO to prepare stock solutions, which were subsequently diluted to the desired concentrations with EtOH. In a 96-well plate, 190 μL of the diluted ABTS radical solution was mixed with 10 μL of each diluted sample solution. The mixture was allowed to react in the dark at room temperature for 6 min. The absorbance at 740 nm was then measured using an ELISA reader. The ABTS radical scavenging activity was calculated by the following equation:(2) Scavenging rate (%)=(OD0−OD1)/OD0×100 where OD0 is absorbance of the control and OD1 is that of the tested sample.

Test [3] is described as follows: Ferric reducing antioxidant power (FRAP). On the procedure: The analysis was performed using the published method. The working solution was prepared by mixing acetate buffer (pH 3.6), ferric chloride solution (20 mM), and TPTZ solution (10 mM TPTZ in 40 mM HCl) in a 10:1:1 ratio. Then, 900 µL of this solution was warmed to 37 °C and mixed with 100 µL of the diluted sample, blank, or standard in a microcentrifuge tube. The tubes were vortexed and incubated in a dry bath at 37 °C for 40 min. Absorbance was measured at 593 nm. The standard curve was linear from 0 to 100 mM Trolox, and results were expressed as mM TE/g dry weight.

Another test concerns the target T1, AChE (Electrophorus electricus, UniProt O42275).
T1 construct: purchased Sigma-Aldrich
In words: biochemical. How it is done: Determination of AChE inhibition was conducted based on the reported method with slight modifications. Sodium phosphate buffer (0.1 M, pH 8.0, 140 µL), test compound solution (20 µL), enzyme solution (15 µL of AChE at 0.2 units/mL), and DTNB (15 mM, 10 µL) were mixed and incubated for 10 min at room temperature. The reaction was then initiated by adding 10 µL of the substrate (AChI, 15 mM).

A short description of test [4]: Superoxide radical scavenging activity (NBT/PMS/NADH). The note with it: for EC50: isolated compounds (Table 5), read-out: SC50 Superoxide. How it is done:
The superoxide scavenging activity assay was performed based on the published method. The superoxide radical was prepared in a 16 mM Tris-HCl buffer (pH 8.0) containing 50 µL of NBT (300 µM), 50 µL of PMS (120 µM), and 50 µL of different concentrations of the tested sample. The reaction was initiated by adding 50 µL of the NADH (468 µM) solution to the mixture and incubated at room temperature for 5 min. The activity of the samples was determined by calculating the decrease in absorbance measured at 560 nm by the following equation:(3) Scavenging rate (%)=(OD0−OD1)/OD0×100 where OD0 is absorbance of the control and OD1 is that of the tested sample.

For the next test, the target named is T2, α-glucosidase (Saccharomyces cerevisiae, UniProt P53341).
T2 construct: purchased Sigma-Aldrich
In words: α-Glucosidase inhibitory activity (p-NPG substrate). It counts as biochemical.

Setting [5] is: solvent extracts, concentration for 50% free radical scavenging.
The mark [6] stands for this setting: isolated compounds (Table 5), Trolox equivalents.

Read-outs that look alike come from different tables or passages of the source. A value given as a limit tells only on which side of the number the result lay.

T1 sequence (O42275 24-633): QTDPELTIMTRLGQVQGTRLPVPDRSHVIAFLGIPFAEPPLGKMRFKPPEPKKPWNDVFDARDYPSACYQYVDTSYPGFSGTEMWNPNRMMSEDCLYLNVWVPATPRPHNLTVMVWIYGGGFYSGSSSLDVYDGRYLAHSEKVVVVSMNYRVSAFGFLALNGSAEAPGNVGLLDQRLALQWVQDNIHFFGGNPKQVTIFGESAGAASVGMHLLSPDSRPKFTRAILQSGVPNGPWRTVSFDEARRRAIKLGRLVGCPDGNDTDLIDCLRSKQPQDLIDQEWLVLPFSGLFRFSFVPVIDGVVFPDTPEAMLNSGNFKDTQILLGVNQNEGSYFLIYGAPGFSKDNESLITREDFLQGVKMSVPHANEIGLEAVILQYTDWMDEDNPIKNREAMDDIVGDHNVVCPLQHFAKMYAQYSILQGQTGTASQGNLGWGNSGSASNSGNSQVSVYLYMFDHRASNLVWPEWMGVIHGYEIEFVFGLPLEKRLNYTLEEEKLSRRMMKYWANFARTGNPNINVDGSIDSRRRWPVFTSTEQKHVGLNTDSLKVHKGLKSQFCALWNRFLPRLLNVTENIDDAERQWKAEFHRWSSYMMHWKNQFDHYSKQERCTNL
T2 sequence (P53341 whole entry): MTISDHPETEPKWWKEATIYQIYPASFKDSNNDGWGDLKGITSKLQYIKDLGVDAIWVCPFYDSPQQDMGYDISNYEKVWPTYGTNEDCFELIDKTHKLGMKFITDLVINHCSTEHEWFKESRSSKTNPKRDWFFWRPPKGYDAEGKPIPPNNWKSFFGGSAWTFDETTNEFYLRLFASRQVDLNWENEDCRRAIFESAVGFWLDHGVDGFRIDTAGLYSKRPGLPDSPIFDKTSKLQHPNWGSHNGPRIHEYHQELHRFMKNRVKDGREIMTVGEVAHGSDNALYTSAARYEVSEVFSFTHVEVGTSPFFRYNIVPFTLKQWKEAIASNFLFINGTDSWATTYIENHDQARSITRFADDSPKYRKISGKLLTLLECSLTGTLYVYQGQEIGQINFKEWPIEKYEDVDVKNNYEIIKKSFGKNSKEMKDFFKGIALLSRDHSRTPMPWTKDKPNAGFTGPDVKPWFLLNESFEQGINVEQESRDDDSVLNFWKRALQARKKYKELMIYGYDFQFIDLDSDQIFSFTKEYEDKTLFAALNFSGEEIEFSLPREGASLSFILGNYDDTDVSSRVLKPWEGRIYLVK

With `Cc1cc(C(C)(C)C)c(O)c(C(C)(C)C)c1` [BHT, butylated hydroxytoluene, reference compound], the EC50 is 708 ± 10.8 µM in test [1] and 37.5 ± 4.31 µM in test [2]. Besides, the “SC50 DPPH” value in test [1] (setting [5]) is 156.04 ± 14.31 µg/mL. In addition, the “SC50 ABTS” value in test [2] (setting [5]) was 9.12 ± 1.85 µg/mL. For the same compound, the “TE FRAP” value in test [3] (setting [6]) is 5712.61 ± 176.27 mM/g; in test [3] (solvent extracts (Table 2), Trolox equivalents in mM per gram of extract) it was 3196.39 ± 115.26 mM/g.

In the case of `O=C(/C=C/c1ccc(O)c(O)c1)O[C@@H]1C[C@](O)(C(=O)O)C[C@@H](O)[C@H]1O` [Chlorogenic acid, chlorogenic acid, reference compound], the IC50 at AChE (isolated compounds (Table 6), read-out: IC50 AChE (converted)) is 303 ± 25.2 µM; on AChE (solvent extracts (Table 3), read-out: IC50 AChE (converted)), 496 µM.

On to `Cc1cc(O)c2c(c1)C(=O)c1cccc(O)c1C2=O` [Chrysophanol (4), chrysophanol], for which the EC50 in test [1], in test [2] and in test [4] was above 200 µM throughout. For the same compound, in test [3] (setting [6]), the “TE FRAP” value is on record as below 1 mM/g. The IC50 at α-glucosidase was 604 ± 44.8 µM; on AChE, above 400 µM.

Regarding `O=c1cc(-c2ccc(O)c(O)c2)oc2cc(O[C@@H]3O[C@H](CO)[C@@H](O)[C@H](O)[C@H]3O)cc(O)c12` [Cynaroside, reference compound], in test [4], the EC50 was 20 ± 1.7 µM. Also, in test [4] (setting [5]), the “SC50 Superoxide” value was determined as 12.03 ± 4.20 µg/mL.

`Cc1cc(O)c2c(c1)C(=O)c1cc(O)cc(O)c1C2=O` [Emodin (3), emodin]: the EC50 in test [1] was above 200 µM; in test [2], above 200 µM; in test [4] it was 232 ± 15.9 µM. Moreover, the “TE FRAP” value in test [3] (setting [6]) is below 1 mM/g. The IC50 turned out to be 58.9 ± 3.39 µM against α-glucosidase and 77.6 ± 6.28 µM at AChE.

For the compound `O=c1c(O)c(-c2ccc(O)cc2)oc2cc(O)cc(O)c12` [Kaempferol (1), kaempferol], the EC50 in test [1] was found to be 61.7 ± 7.36 µM; in test [2], 15.3 ± 0.94 µM; in test [4], 271 ± 20.7 µM. The “TE FRAP” value in test [3] (setting [6]) is given as 1046.16 ± 23.78 mM/g; in test [3] (isolated compounds (Table 5), Trolox equivalents, listed as kaempferol (1)) it was 1046.16 ± 23.78 mM/g.

Regarding `COc1cc(O)c2c(c1)C(=O)c1cc(C)cc(O)c1C2=O` [Physcion (5), physcion], the EC50 in test [1], in test [2] and in test [4] was above 200 µM throughout. The “TE FRAP” value in test [3] (setting [6]) is on record as below 1 mM/g. In addition, the figures for the IC50 against α-glucosidase and at AChE were above 800 µM and 76 ± 1.34 µM, respectively.

For the compound `O=c1c(O)c(-c2ccc(O)c(O)c2)oc2cc(O)cc(O)c12` [Quercetin (2), quercetin], the EC50 stood at 16.1 ± 2.62 µM in test [1], 5.7 ± 0.92 µM in test [2] and 85.8 ± 4.76 µM in test [4]. The “TE FRAP” value was 1026.73 ± 16.69 mM/g in test [3] (setting [6]) and 1026.73 ± 16.69 mM/g in test [3] (isolated compounds (Table 5), Trolox equivalents, listed as quercetin (2)).

Broadly, the IC50 is the concentration needed to halve the response being measured.
